From PubChem BioAssay AID2060900 (Molecular Pharmacology Branch, DTP, NCI, 2025)

Tested on: 521955-158-R2-J5-PDC complex spheroids, viability
Assay: Anticancer human tumor 521955-158-R2-J5-PDC patient-derived pancreatic carcinoma cell line growth inhibition [RAS]
Settings: for IC50: curve of first compound; for viability, T/C: stronger effect = lower value
In short: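 Multi-cell-type spheroids: tumor cells plus HUVEC endothelial cells and mesenchymal stem cells. RAS-pathway inhibitors were combined with targeted agents, each dosed in half-log steps down from clinical Cmax, or from 10 microM when Cmax was unknown.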
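Further: compound exposure lasted seven days before the viability read.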
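Wherever viability, T/C is given: spheroids also contain HUVEC endothelial cells and mesenchymal stem cells as stroma.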

CC(Nc1ccc2c(c1)OCCn1cc(N3C(=O)OCC3C(F)F)nc1-2)C(N)=O (configuration not stated) + C#Cc1c(F)ccc2cc(O)cc(-c3ncc4c(N5CC6CCC(C5)N6)nc(OCC56CCCN5CC(F)C6)nc4c3F)c12
IC50 (second compound 0.0316 µM): 0.0554 µM | IC50 (second compound 0.1 µM): < 0.0316 µM | IC50 (second compound 0.316 µM): < 0.0316 µM | IC50 (second compound 1 µM): < 0.0316 µM | IC50 (second compound 3.16 µM): < 0.0316 µM | IC50 (second compound 10 µM): < 0.0316 µM | viability, T/C (second compound 0.0316 µM, first compound 0.0316 µM): 60.7% | viability, T/C (second compound 0.0316 µM, first compound 0.1 µM): 37.6% | viability, T/C (second compound 0.0316 µM, first compound 0.316 µM): 28.7% | viability, T/C (second compound 0.0316 µM, first compound 1 µM): 17.1% | viability, T/C (second compound 0.0316 µM, first compound 3.16 µM): 12.9% | viability, T/C (second compound 0.0316 µM, first compound 10 µM): 11.9% | viability, T/C (second compound 0.1 µM, first compound 0.0316 µM): 46.9% | viability, T/C (second compound 0.1 µM, first compound 0.1 µM): 31.9% | viability, T/C (second compound 0.1 µM, first compound 0.316 µM): 24.3% | viability, T/C (second compound 0.1 µM, first compound 1 µM): 16% | viability, T/C (second compound 0.1 µM, first compound 3.16 µM): 13.6% | viability, T/C (second compound 0.1 µM, first compound 10 µM): 11.3% | viability, T/C (second compound 0.316 µM, first compound 0.0316 µM): 48.1% | viability, T/C (second compound 0.316 µM, first compound 0.1 µM): 35.1% | viability, T/C (second compound 0.316 µM, first compound 0.316 µM): 18.7% | viability, T/C (second compound 0.316 µM, first compound 1 µM): 16% | viability, T/C (second compound 0.316 µM, first compound 3.16 µM): 10.8% | viability, T/C (second compound 0.316 µM, first compound 10 µM): 10.2% | viability, T/C (second compound 1 µM, first compound 0.0316 µM): 36% | viability, T/C (second compound 1 µM, first compound 0.1 µM): 28.7% | viability, T/C (second compound 1 µM, first compound 0.316 µM): 18.2% | viability, T/C (second compound 1 µM, first compound 1 µM): 16.7% | viability, T/C (second compound 1 µM, first compound 3.16 µM): 11.7% | viability, T/C (second compound 1 µM, first compound 10 µM): 8.56% | viability, T/C (second compound 3.16 µM, first compound 0.0316 µM): 32.7% | viability, T/C (second compound 3.16 µM, first compound 0.1 µM): 25.3% | viability, T/C (second compound 3.16 µM, first compound 0.316 µM): 16.3% | viability, T/C (second compound 3.16 µM, first compound 1 µM): 11% | viability, T/C (second compound 3.16 µM, first compound 3.16 µM): 8.73% | viability, T/C (second compound 3.16 µM, first compound 10 µM): 6.29% | viability, T/C (second compound 10 µM, first compound 0.0316 µM): 26.5% | viability, T/C (second compound 10 µM, first compound 0.1 µM): 16.8% | viability, T/C (second compound 10 µM, first compound 0.316 µM): 8.86% | viability, T/C (second compound 10 µM, first compound 1 µM): 4.7% | viability, T/C (second compound 10 µM, first compound 3.16 µM): 2.91% | viability, T/C (second compound 10 µM, first compound 10 µM): 1.54%
